Several values for one entry are separate records, joined by “and”; a condition that tells them apart may be missing. Equal entries are not always repeated.
System: DSS-induced colitis mice
Experiment: In vivo efficacy study, DSS-induced colitis model
Parameters: species or system male BALB/c mice
Conditions: for DAI score (Fig. 6b) / Body weight (Fig. 6a): individual mice
[1] = 3.5% DSS colitis mice, compound 3 5 mg/kg, Fedratinib 10 mg/kg
[2] = 3.5% DSS colitis mice, compound 3 5 mg/kg, Fedratinib 10 mg/kg, intragastric, day 8 to day 14
[3] = compound 3 5 mg/kg, Fedratinib 10 mg/kg

Description: Model mice were divided into four groups and eight mice were included in each group on day 8. […] Meanwhile, solvent was given intragastrically to the control group and model group. On day 15, the mice were sacrificed, and the length and weight of each colon were measured.
Body weight, the stool consistency, and the presence of blood in feces were recorded daily in the morning. […] The maximum score was 9, which was the sum of the scores. About 1-cm colon tissue, which is 0.5 cm away from the anal margin, was collected, and the ileocecal area was used for histopathological examination. After H&E staining, the tissues were scored under single-blind conditions to evaluate the levels of inflammation and tissue damage in the colons following the criteria proposed by ref. [62]. Statistical analyses were performed using SPSS v24.0.

Cc1cnc2nc1Nc1cccc(c1)COCC=CCOCc1cc(ccc1OCCN1CCCC1)N2 [Compound 3]
histological scores (H&E, Ameho criteria) [1]: lower | body weight change [2]: alleviate the decrease of body weight | disease activity index (DAI) scores [2]: significantly decreased | ratio of colon weight to length (3.5% DSS colitis mice, compound 3 5 mg/kg, Fedratinib 10 mg/kg, compared to the model group): decreased | DAI score (Fig. 6b) (Compound 3 5 mg/kg, day 0): 0 | Body weight (Fig. 6a) (Compound 3 5 mg/kg, day 0, 5 mg/kg): 21.4 and 20.3 and 22.6 and 21.9 (2×) and 23.4 and 23.9 and 21.5 | DAI score (Fig. 6b) (Compound 3 5 mg/kg, day 1, 5 mg/kg): 0 (7×) and 1 | Body weight (Fig. 6a) (Compound 3 5 mg/kg, day 1, 5 mg/kg, in g (unit assumed)): 22.2 and 21 and 23.1 and 22.4 and 23.5 and 21.4 and 24.6 and 22.7 | DAI score (Fig. 6b) (Compound 3 5 mg/kg, day 2, 5 mg/kg): 2 and 0 (5×) and 1 (2×) | Body weight (Fig. 6a) (Compound 3 5 mg/kg, day 2, 5 mg/kg, in g (unit assumed)): 21.8 and 22.8 and 22.4 | DAI score (Fig. 6b) (Compound 3 5 mg/kg, day 3, 5 mg/kg): 0 (5×) and 2 (3×) | DAI score (Fig. 6b) (Compound 3 5 mg/kg, day 4, 5 mg/kg): 2 (4×) and 0 and 1 (2×) and 3 | Body weight (Fig. 6a) (Compound 3 5 mg/kg, day 4, 5 mg/kg, in g (unit assumed)): 23.2 and 19.6 and 22.9 and 22.3 and 22.4 and 22 and 21.1 and 22.5 | DAI score (Fig. 6b) (Compound 3 5 mg/kg, day 5, 5 mg/kg): 3 (2×) and 5 and 1 (3×) and 6 and 2 | Body weight (Fig. 6a) (Compound 3 5 mg/kg, day 5, 5 mg/kg, in g (unit assumed)): 23 and 19.1 and 22 and 19.4 and 20.5 and 20.9 and 20.6 and 21.4 | DAI score (Fig. 6b) (Compound 3 5 mg/kg, day 6, 5 mg/kg): 4 (2×) and 5 and 1 (2×) and 2 and 7 and 6 | Body weight (Fig. 6a) (Compound 3 5 mg/kg, day 6, 5 mg/kg, in g (unit assumed)): 22.2 and 18.3 and 21.8 and 20.1 and 18.5 and 18.4 and 20.2 and 21.3 | DAI score (Fig. 6b) (Compound 3 5 mg/kg, day 7, 5 mg/kg): 7 (3×) and 2 (2×) and 6 and 3 and 4 | Body weight (Fig. 6a) (Compound 3 5 mg/kg, day 7, 5 mg/kg, in g (unit assumed)): 20.9 and 16.9 and 20.5 and 19.8 and 16.7 and 16.5 and 20.1 and 19.7 | DAI score (Fig. 6b) (Compound 3 5 mg/kg, day 8, 5 mg/kg): 0 (3×) and 5 and 3 (2×) and 1 (2×) | Body weight (Fig. 6a) (Compound 3 5 mg/kg, day 8, 5 mg/kg, in g (unit assumed)): 20.9 and 15.8 and 22.3 and 21.2 and 16.4 and 21.3 and 21.8 | DAI score (Fig. 6b) (Compound 3 5 mg/kg, day 9, 5 mg/kg): 1 and 0 (5×) and 2 | Body weight (Fig. 6a) (Compound 3 5 mg/kg, day 9, 5 mg/kg, in g (unit assumed)): 20.2 and 15.8 and 22.7 and 22.9 and 16.5 and 21.9 and 22 | DAI score (Fig. 6b) (Compound 3 5 mg/kg, day 10, 5 mg/kg): 1 (4×) and 2 (3×) | Body weight (Fig. 6a) (Compound 3 5 mg/kg, day 10, 5 mg/kg, in g (unit assumed)): 19.5 and 15.3 and 22.2 and 22.8 and 16.1 and 21.9 and 22.6 | DAI score (Fig. 6b) (Compound 3 5 mg/kg, day 11): 0 | Body weight (Fig. 6a) (Compound 3 5 mg/kg, day 11, 5 mg/kg): 20.1 and 15.7 and 22 (2×) and 22.9 and 16.7 and 22.8 | DAI score (Fig. 6b) (Compound 3 5 mg/kg, day 12, 5 mg/kg): 0 (6×) and 1 | Body weight (Fig. 6a) (Compound 3 5 mg/kg, day 12, 5 mg/kg, in g (unit assumed)): 21 and 16.6 and 22.3 and 23 and 17.2 and 22.1 and 22.9 | Body weight (Fig. 6a) (Compound 3 5 mg/kg, day 13, 5 mg/kg, in g (unit assumed)): 21.7 and 17.7 and 21.8 and 23.1 and 18 and 22.3 and 22.6 | Body weight (Fig. 6a) (Compound 3 5 mg/kg, day 14, 5 mg/kg): 21.5 and 17.4 and 22.3 and 23.4 and 19.2 and 22.4 (2×) | HE staining score (Fig. 6d) (Compound 3 5 mg/kg, individual colon tissues (n = 7), 5 mg/kg): 3 and 1 and 2 | symptoms in DSS-induced murine colitis [3]: ameliorate the symptoms

Cc1cnc(Nc2ccc(OCCN3CCCC3)cc2)nc1Nc1cccc(S(=O)(=O)NC(C)(C)C)c1 [Fedratinib]
histological scores (H&E, Ameho criteria) [1]: lower | body weight change [2]: alleviate the decrease of body weight | DAI score (Fig. 6b) (Fedratinib 10 mg/kg, day 0): 0 | Body weight (Fig. 6a) (Fedratinib 10 mg/kg, day 0, in g (unit assumed)): 22.2 and 22.7 and 23.9 and 22.6 and 19.9 and 23.6 and 20.6 and 23.1 | DAI score (Fig. 6b) (Fedratinib 10 mg/kg, day 1): 1 (4×) and 0 (4×) | Body weight (Fig. 6a) (Fedratinib 10 mg/kg, day 1, in g (unit assumed)): 21.3 and 24.2 and 23.6 and 23.8 and 21.7 and 23.2 and 20.9 and 22 | DAI score (Fig. 6b) (Fedratinib 10 mg/kg, day 2): 0 (3×) and 1 (5×) | Body weight (Fig. 6a) (Fedratinib 10 mg/kg, day 2, in g (unit assumed)): 22.6 and 23.8 | DAI score (Fig. 6b) (Fedratinib 10 mg/kg, day 3): 0 (5×) and 1 (3×) | Body weight (Fig. 6a) (Fedratinib 10 mg/kg, day 4): 21.8 and 22.7 and 23.6 (2×) and 22.3 and 21.7 and 19.8 and 23.2 | DAI score (Fig. 6b) (Fedratinib 10 mg/kg, day 4): 1 (5×) and 3 (2×) and 0 | DAI score (Fig. 6b) (Fedratinib 10 mg/kg, day 5): 0 (3×) and 3 (2×) and 1 and 4 and 2 | Body weight (Fig. 6a) (Fedratinib 10 mg/kg, day 5, in g (unit assumed)): 22 and 21.8 and 23.1 and 21 and 21.9 and 23.6 and 18.9 and 22.7 | DAI score (Fig. 6b) (Fedratinib 10 mg/kg, day 6): 1 (4×) and 6 and 7 and 2 and 5 | Body weight (Fig. 6a) (Fedratinib 10 mg/kg, day 6, in g (unit assumed)): 22.1 and 20.1 and 22.6 and 19.3 and 21.5 and 23.6 and 17.1 and 20.5 | Body weight (Fig. 6a) (Fedratinib 10 mg/kg, day 7): 21.8 (2×) and 19 and 22.5 and 18.2 and 23.9 and 16 and 18.3 | DAI score (Fig. 6b) (Fedratinib 10 mg/kg, day 7): 2 (2×) and 7 (3×) and 0 and 3 and 6 | DAI score (Fig. 6b) (Fedratinib 10 mg/kg, day 8): 0 (5×) and 3 (2×) and 6 | Body weight (Fig. 6a) (Fedratinib 10 mg/kg, day 8, in g (unit assumed)): 22.3 and 18.8 and 23.8 and 18.6 and 21.7 and 24 and 15.6 and 17.2 | DAI score (Fig. 6b) (Fedratinib 10 mg/kg, day 9): 0 (5×) and 3 (2×) and 1 | Body weight (Fig. 6a) (Fedratinib 10 mg/kg, day 9, in g (unit assumed)): 22.3 and 19.4 and 23.7 and 19.1 and 19.3 and 24.2 and 15.3 | DAI score (Fig. 6b) (Fedratinib 10 mg/kg, day 10): 2 (2×) and 1 (3×) and 0 (2×) | Body weight (Fig. 6a) (Fedratinib 10 mg/kg, day 10, in g (unit assumed)): 21.6 and 18.4 and 23.8 and 19.7 and 19 and 23.6 and 15.4 | DAI score (Fig. 6b) (Fedratinib 10 mg/kg, day 11): 0 (5×) and 1 and 2 | Body weight (Fig. 6a) (Fedratinib 10 mg/kg, day 11, in g (unit assumed)): 21.9 and 18.6 and 23.5 and 20.2 and 18.7 and 23.6 and 16 | DAI score (Fig. 6b) (Fedratinib 10 mg/kg, day 12): 0 (5×) and 1 | Body weight (Fig. 6a) (Fedratinib 10 mg/kg, day 12, in g (unit assumed)): 22.2 and 19.1 and 24.1 and 19.9 and 19.4 and 23.8 and 16 | Body weight (Fig. 6a) (Fedratinib 10 mg/kg, day 13, in g (unit assumed)): 21.9 and 19.8 and 24.2 and 20.4 and 20.1 and 24 and 16.1 | Body weight (Fig. 6a) (Fedratinib 10 mg/kg, day 14, in g (unit assumed)): 22.6 and 20.3 and 24.5 and 20.4 and 20.8 and 24.1 and 16.5 | HE staining score (Fig. 6d) (Fedratinib 10 mg/kg, individual colon tissues (n = 5)): 1 and 3 and 0 | symptoms in DSS-induced murine colitis [3]: ameliorate the symptoms

— article PMC10382584, “Macrocyclization of linear molecules by deep learning to facilitate macrocyclic drug candidates discovery” (Nature Communications, 2023)
